The subject of series [1] is Human immunodeficiency virus 1. Description: Antiviral activity against HIV1. Type of series: functional, organism-based.
The target in series [2] is Human immunodeficiency virus type 1 protease (Human immunodeficiency virus 1, UniProt Q72874). Briefly: Inhibition of wild type HIV1 protease using Arg-Glu (EDANS)-Ser-Gln-Asn-Tyr-Pro-Ile-Val-Gln-Lys(DABCYL)-Arg as substrate preincubated for 20 to 30 mins followed by substrate addition and measured for 10 mins by FRET assay.
Series [3] relates to Human immunodeficiency virus 1. Briefly: Antiviral activity against HIV1 Env-deficient VSV-G pseudotyped virus infected in human SUP-T1 cells infected with supernatant of compound treated virus-producing 293T cells assessed as inhibition of late stage viral production at 10 uM treated for 48 hrs with virus-producing 293T cells followed by SUP-T1 cells infection for 48 hrs by single-round infection luciferase assay relative to control. To be noted: Human immunodeficiency virus 1, SUP-T1, time 96 hrs. It counts as functional.

A short description of series [4]: Selectivity index, ratio of CC50 for cytotoxicity against HEK293T cells to IC50 of antiviral activity against HIV1. To be noted: human, read-out: Ratio CC50/IC50. It counts as toxicity, cell-based.
A short description of series [5]: Cytotoxicity against HEK293T cells assessed as reduction in cell viability incubated for 24 hrs by CCK8 assay. Type of series: cell-based, HEK-293T. To be noted: human. In general terms: Tetrazolium assays rely on reduction of a dye to a coloured formazan, in cell work by metabolically active cells.
Series [6] deals with Human immunodeficiency virus 1. Description: Antiviral activity against HIV1 (NL4-3) Env-deficient VSV-G pseudotyped virus infected in human SUP-T1 cells assessed as inhibition of early stage viral production at 10 uM measured after 48 hrs by luciferase assay relative to control. Type of series: functional. To be noted: Human immunodeficiency virus 1, NL4-3, SUP-T1.
Series [7] concerns Human immunodeficiency virus 1. Description: Antiviral activity against HIV1 subtype C isolate 11941. It counts as functional, organism-based.
Series [8] concerns Human immunodeficiency virus 1. Description: Antiviral activity against DRV resistant HIV1 infected in human MT4 cells assessed as reduction in viral replication by measuring reduction in p24 Gag production by chemiluminescent-EIA. It counts as functional, organism-based. To be noted: Human immunodeficiency virus 1, MT4.
Series [9] deals with Human immunodeficiency virus 1. Briefly: Antiviral activity against HIV1 NL4-3 infected in human MT4 cells assessed as reduction in viral replication by measuring reduction in p24 Gag production by chemiluminescent-EIA. It counts as functional, organism-based. To be noted: Human immunodeficiency virus 1, NL4-3, MT4.
The subject of series [10] is Human immunodeficiency virus 1. Briefly: Antiviral activity against HIV1 subtype C isolate 11929. It counts as functional, organism-based. To be noted: Human immunodeficiency virus 1, subtype C isolate 11929.
Series [11] has as its system Human immunodeficiency virus 1. Briefly: Antiviral activity against HIV1 subtype C isolate-plndie. It counts as functional, organism-based. To be noted: Human immunodeficiency virus 1, subtype C isolate-plndie.
For series [12], the target named is Human immunodeficiency virus type 1 protease (Human immunodeficiency virus 1) (UniProt Q72874). Briefly: Potency index, ratio of DRV Ki to test compound Ki for inhibition of wild type HIV1 protease using Arg-Glu (EDANS)-Ser-Gln-Asn-Tyr-Pro-Ile-Val-Gln-Lys(DABCYL)-Arg as substrate preincubated for 20 to 30 mins followed by substrate addition and measured for 10 mins by FRET assay. To be noted: time 30-40 min.

Series [13] can be described thus: Resistance index, ratio of IC50 for DRV resistant HIV1 infected in human MT4 cells to IC50 for HIV1 NL4-3 infected in human MT4 cells. It counts as functional.
In series [14] the test system is Human immunodeficiency virus 1. Description: Antiviral activity against HIV1 subtype C isolate 11928. It counts as functional, organism-based.
Series [15] deals with Human immunodeficiency virus 1. Briefly: Antiviral activity against HIV1 Env-deficient VSV-G pseudotyped virus infected in human SUP-T1 cells infected with supernatant of compound treated virus-producing 293T cells assessed as inhibition of late stage viral production at 100 nM treated for 48 hrs with virus-producing 293T cells followed by SUP-T1 cells infection for 48 hrs by single-round infection luciferase assay relative to control. It counts as functional. To be noted: Human immunodeficiency virus 1, SUP-T1, time 96 hrs.

The IC50 is the midpoint of a concentration-inhibition curve. Lower therefore signals greater potency in that assay. For orientation: Ki means a measure of affinity in units of concentration, obtained from inhibition or displacement. Higher therefore signals weaker binding. As a reminder, the inhibition is the share of the control response that was lost under treatment. One may read the CC50 as the concentration at which the toxic effect on the cells reaches its halfway point. As usually defined, the EC50 is the midpoint of the concentration-response curve.

Bounds are passed on as bounds.

Take `COc1ccc(S(=O)(=O)N(CC(C)C)C[C@@H](O)[C@H](Cc2ccccc2)NC(=O)[C@H]2CCCNC2)cc1`: in series [1], the IC50 worked out at 44.6 nM. The Ki in [2] came to 9.99 nM. Further, the inhibition at 10 µM in series [3] worked out at 93%.

`CC(C)CN(C[C@@H](O)[C@H](Cc1ccccc1)NC(=O)[C@@H]1CCCCN1)S(=O)(=O)c1ccc(C(F)(F)F)cc1` yielded an IC50 in series [1] of 20.6 nM. This compound had a Ki in [2] of 4.61 nM.

As to `COc1ccc(S(=O)(=O)N(CC(C)C)C[C@@H](O)[C@H](Cc2ccccc2)NC(=O)OC[C@@H]2CCCNC2)cc1`, it took 0.43 nM to reach half-maximal inhibition in [1] (IC50). In addition, in series [4], the selectivity ratio is above 233000. The same compound gave a Ki in series [2] of 0.1 nM. Further, in series [5], the CC50 at 24 h is above 100000 nM. In addition, the inhibition at 10 µM in series [3] is 94%.

On to `CC(C)CN(C[C@@H](O)[C@H](Cc1ccccc1)NC(=O)OC[C@H]1CCCNC1)S(=O)(=O)c1ccc(C(F)(F)F)cc1`, for which the IC50 in [1] was determined as 11.7 nM. The selectivity ratio in [4] is above 8580. The compound also gave a Ki in [2] of 2.61 nM. In addition, the CC50 at 24 h in [5] was above 100000 nM.

Compound `CC(C)CN(C[C@@H](O)[C@H](Cc1ccccc1)NC(=O)[C@@H]1CCCN(C)C1)S(=O)(=O)c1ccc(C(F)(F)F)cc1` showed an IC50 in series [1] of 0.84 nM. Besides, the selectivity ratio in series [4] is above 119000. In series [2], the Ki is 0.19 nM. Moreover, the CC50 at 24 h in series [5] is above 100000 nM. Besides, in series [3], the inhibition at 10 µM is 88%.

Compound `COc1ccc(S(=O)(=O)N(CC(C)C)C[C@@H](O)[C@H](Cc2ccccc2)NC(=O)C2CCNCC2)cc1` displayed an IC50 in series [1] of 2.45 nM. Moreover, the selectivity ratio in series [4] was above 40800. Further, affinity in series [2] was put at a Ki of 0.55 nM. Also, the CC50 at 24 h in series [5] was above 100000 nM.

In series [1], `CC(C)CN(C[C@@H](O)[C@H](Cc1ccccc1)NC(=O)OC[C@@H]1CCCNC1)S(=O)(=O)c1ccc(N)cc1` displayed an IC50 of 1.27 nM. In series [4], the selectivity ratio was above 78700. Further, affinity in series [2] was put at a Ki of 0.28 nM. The CC50 at 24 h in series [5] was above 100000 nM. Further, the inhibition at 10 µM in series [3] stood at 71%.

In series [1], `COc1ccc(S(=O)(=O)N(CC(C)C)C[C@@H](O)[C@H](Cc2ccccc2)NC(=O)[C@@H]2CCCN(C)C2)cc1` had an IC50 of 0.18 nM. Moreover, the selectivity ratio in [4] was above 556000. In addition, the Ki in series [2] came to 0.04 nM. In addition, the inhibition at 10 µM in series [6] came out at 5%; in series [3] it was 98%. Further, the CC50 at 24 h in [5] was above 100000 nM.

In series [1], `CC(C)CN(C[C@@H](O)[C@H](Cc1ccccc1)NC(=O)[C@@H]1CCCNC1)S(=O)(=O)c1ccc(N)cc1` had an IC50 of 1.21 nM. In addition, in series [4], the selectivity ratio was above 82600. In series [2], this compound gave a Ki of 0.27 nM. Also, the CC50 at 24 h in series [5] is above 100000 nM. Besides, in series [3], the inhibition at 10 µM was found to be 81%.

Turning to `CC(C)CN(C[C@@H](O)[C@H](Cc1ccccc1)NC(=O)[C@@H]1CCCCN1)S(=O)(=O)c1ccc(N)cc1`, the concentration for half-maximal inhibition (IC50) in series [1] is 9.04 nM. Moreover, in series [4], the selectivity ratio is above 11100. Besides, in series [2], the affinity corresponds to a Ki of 2.03 nM. Moreover, the CC50 at 24 h in [5] was above 100000 nM.

For `CC(C)CN(C[C@@H](O)[C@H](Cc1ccccc1)NC(=O)[C@H]1CCCNC1)S(=O)(=O)c1ccc(N)cc1`, the IC50 in series [1] was found to be 181 nM. In [2], this compound gave a Ki of 40.5 nM.

Compound `CC(C)CN(C[C@@H](O)[C@H](Cc1ccccc1)NC(=O)[C@@H]1CCCNC1)S(=O)(=O)c1ccc(C(F)(F)F)cc1` showed an IC50 in [1] of 0.45 nM. Besides, in [4], the selectivity ratio was above 222000. For the same compound, in series [2], the Ki is 0.1 nM. In addition, the CC50 at 24 h in series [5] is above 100000 nM.

For the compound `CC(C)CN(C[C@@H](O)[C@H](Cc1ccccc1)NC(=O)C1CCNCC1)S(=O)(=O)c1ccc(C(F)(F)F)cc1`, the IC50 in [1] amounted to 26.5 nM. Affinity in [2] was put at a Ki of 5.93 nM.

Regarding `CC(C)CN(C[C@@H](O)[C@H](Cc1ccccc1)NC(=O)[C@H]1CCCNC1)S(=O)(=O)c1ccc(C(F)(F)F)cc1`, in series [1], the IC50 turned out to be 196 nM. The compound further came in with a Ki in series [2] of 43.9 nM.

On to `COc1ccc(S(=O)(=O)N(CC(C)C)C[C@@H](O)[C@H](Cc2ccccc2)NC(=O)OC[C@H]2CCCNC2)cc1`, for which the IC50 in series [1] stood at 1.35 nM. Also, the selectivity ratio in series [4] is above 74100. In addition, the Ki in [2] stood at 0.3 nM. Besides, the CC50 at 24 h in [5] is above 100000 nM.

Regarding `COc1ccc(S(=O)(=O)N(CC(C)C)C[C@@H](O)[C@H](Cc2ccccc2)NC(=O)[C@@H]2CCCCN2)cc1`, the IC50 in series [1] is 1.46 nM. Further, the selectivity ratio in series [4] is above 68500. This compound came in with a Ki in [2] of 0.33 nM. Moreover, the CC50 at 24 h in series [5] is above 100000 nM. Moreover, the inhibition at 10 µM in series [3] was found to be 79%.

Turning to `CC(C)CN(C[C@@H](O)[C@H](Cc1ccccc1)NC(=O)OC[C@@H]1CCCNC1)S(=O)(=O)c1ccc(C(F)(F)F)cc1`, 7.71 nM corresponded to half-maximal inhibition in series [1] (IC50). For the same compound, the selectivity ratio in [4] was above 13000. This compound gave a Ki in series [2] of 1.73 nM. Further, in series [5], the CC50 at 24 h was above 100000 nM.

For the compound `CC(C)CN(C[C@@H](O)[C@H](Cc1ccccc1)NC(=O)[C@@H]1CCCN(C)C1)S(=O)(=O)c1ccc(N)cc1`, the IC50 in series [1] came out at 1.35 nM. The selectivity ratio in series [4] is above 74100. The compound further gave a Ki in [2] of 0.3 nM. Besides, the CC50 at 24 h in series [5] is above 100000 nM. In addition, the inhibition at 10 µM in [3] is 83%.

Compound `CC(C)CN(C[C@@H](O)[C@H](Cc1ccccc1)NC(=O)C1CCNCC1)S(=O)(=O)c1ccc(N)cc1` displayed an IC50 in series [1] of 24.6 nM. The same compound came in with a Ki in series [2] of 5.52 nM.

Consider `COc1ccc(S(=O)(=O)N(CC(C)C)C[C@@H](O)[C@H](Cc2ccccc2)NC(=O)[C@@H]2CCCNC2)cc1`, for which the IC50 in series [1] is 0.13 nM. For the same compound, the EC50 in series [7] came out at 11800 nM; in [8], 900 nM; in series [9], 500 nM; in series [10], 14800 nM; in series [11], 26300 nM; in series [14], 49400 nM. For the same compound, the selectivity ratio in series [4] is above 769000. In series [2], this compound returned a Ki of 0.029 nM. Also, the values for the inhibition at 10 µM in series [6] and in series [3] were 3% and 99%, respectively. The CC50 at 24 h in series [5] was above 100000 nM. Also, the Ratio Ki in series [12] stood at 6. In addition, in [13], the “Ratio IC50” value was 1.8.

`CC(C)CN(C[C@@H](O)[C@H](Cc1ccccc1)NC(=O)OC[C@H]1CCCNC1)S(=O)(=O)c1ccc(N)cc1` returned an IC50 in [1] of 4.53 nM. The selectivity ratio in [4] was above 22100. In series [2], the affinity, expressed as Ki, was 1.01 nM. Moreover, the CC50 at 24 h in series [5] was above 100000 nM.

`CC(C)CN(C[C@@H](O)[C@H](Cc1ccccc1)NC(=O)O[C@H]1CO[C@H]2OCC[C@H]21)S(=O)(=O)c1ccc(N)cc1`: the EC50 in series [7] came to 910 nM; in series [8], 240 nM; in [9], 3.9 nM; in [10], 3630 nM; in series [11], 1260 nM; in [14] it was 2010 nM. Further, in [15], the inhibition at 0.1 µM is 100%. The CC50 at 24 h in series [5] was above 100000 nM.

These data come from ChEMBL document CHEMBL4837199, “Design and evaluation of novel piperidine HIV-1 protease inhibitors with potency against DRV-resistant variants” (Eur J Med Chem, 2021).
